Experimental data published in patent publication US10392383B2, “3-(1H-benzo[d]imidazol-2-yl)-1H-pyrazolo[4,3-b]pyridines and therapeutic uses thereof” (Samumed, LLC, priority 2015, dated 2019).

Columns and labels:
Format in all cases: cell-based
SW480 colon cancer cells = assay: Cell viability assay (CellTiter-Blue) in SW480 cells; conditions: Homo sapiens, 96 h, four days; for inhibition at 10 µM: read-out: percent inhibition at 10 μM (given for EC50 of >10 μM); for EC50: CellTiter-Blue, 10 μM to 0.0045 μM
Summary of the method: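 Resazurin reduction (Ex 560/Em 590 nm, ~3 h reagent incubation) served as the viability read-out after SW480 cells were treated for four days at 37 °C. Doses ran from 10 μM down to 0.0045 μM in eight 1:3 steps. Curves fitted non-linearly for EC50, else % inhibition at 10 μM reported.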

[1] = test system: Wnt activity (Sp5-Luc reporter, Wnt-responsive promoter) in SW480 colon carcinoma cells; assay: Wnt activity screening assay: Sp5-Luc reporter gene assay in SW480 cells; conditions: Homo sapiens; for EC50: overnight incubation, 10-point curve starting from 10 μM; for inhibition at 10 µM: read-out: percent inhibition at 10 μM (given for EC50 of >10 μM)
Summary of the method: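 SW480 cells stably transduced with an Sp5 promoter (eight TCF/LEF sites)–firefly luciferase lentiviral reporter, plated at 4,000 cells/well in 1% FBS medium with compounds (10-point 1:3 series from 10 μM, 0.1% DMSO) overnight at 37 °C. BrightGlo luminescence normalised to DMSO; EC50 by four-parameter fit, else % inhibition at 10 μM.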

[2] = test system: primary human fibroblasts derived from IPF patients (LL29 cells) treated with TGF-β1; assay: Inhibition of the fibrotic process: αSMA staining in TGF-β1-treated LL29 fibroblasts; conditions: Fibroblast; for EC50: 96 h, LL29 fibroblasts treated with TGF-β1 (20 ng/mL), 4 days, Table 4; for inhibition at 10 µM: LL29 fibroblasts treated with TGF-β1, Table 4, read-out: percent inhibition at 10 μM (given in parentheses for EC50 >10 μM)
Summary of the method: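 EC50 from triplicate-well dose-response fits of % αSMA-positive cells, normalized to TGF-β1-stimulated DMSO controls, with SYTOX-positive dead cells excluded. LL29 IPF fibroblasts received compound at 10 μM–1.87 nM (0.1% DMSO) plus 20 ng/mL TGF-β1 for 4 days in 1% FBS medium; above 10 μM, % inhibition at 10 μM reported.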

Compound	inhibition at 10 µM (SW480 colon cancer cells) [%]	EC50 (SW480 colon cancer cells) [nM]	EC50 [1] [nM]	EC50 [2] [nM]	inhibition at 10 µM [1] [%]	inhibition at 10 µM [2] [%]
Cc1ccc(-c2cccc3[nH]c(-c4n[nH]c5ccc(-c6cncc(OC7CCCCC7)c6)nc45)nc23)s1 [Compound 735, 5-(5-(Cyclohexyloxy)pyridin-3-yl)-3-(4-(5-methylthiophen-2-yl)-1H-benzo [d]imidazol-2-yl)-1H-pyrazolo[4,3-b]pyridine]	32.3	> 10000	3810	1130	–	–
Cn1cc(-c2ccc3[nH]nc(-c4nc5c(-c6cc(F)cc(CNS(C)(=O)=O)c6)cccc5[nH]4)c3n2)cn1 [Compound 764, N-(3-Fluoro-5-(2-(5-(1-methyl-1H-pyrazol-4-yl)-1H-pyrazolo[4,3-b]pyridin-3-yl)-1H-benzo[d]imidazol-4-yl)benzyl)methanesulfonamide]	–	1410	539	1990	–	–
CS(=O)(=O)NCc1cc(F)cc(-c2cccc3[nH]c(-c4n[nH]c5ccc(-c6cncc(NC(=O)CC7CCNCC7)c6)nc45)nc23)c1 [Compound 769, N-(5-(3-(4-(3-Fluoro-5-(methylsulfonamidomethyl)phenyl)-1H-benzo[d]imidazol-2-yl)-1H-pyrazolo[4,3-b]pyridin-5-yl)pyridin-3-yl)-2-(piperidin-4-yl)acetamide]	0	> 10000	> 10000	3250	12.3	–
Cc1ncc(-c2ccc3[nH]nc(-c4nc5c(-c6cc(F)cc(NCCN(C)C)c6)cccc5[nH]4)c3n2)n1C [Compound 781, N^1-(3-(2-(5-(1,2-Dimethyl-1H-imidazol-5-yl)-1H-pyrazolo[4,3-b]pyridin-3-yl)-1H-benzo[d]imidazol-4-yl)-5-fluorophenyl)-N^2,N^2-dimethylethane-1,2-diamine]	–	549	480	917	–	–
CN(C)CCNc1cc(F)cc(-c2cccc3[nH]c(-c4n[nH]c5ccc(-c6cncc(OCCN7CCCC7)c6)nc45)nc23)c1 [Compound 786, N^1-(3-Fluoro-5-(2-(5-(5-(2-(pyrrolidin-1-yl)ethoxy)pyridin-3-yl)-1H-pyrazolo[4,3-b]pyridin-3-yl)-1H-benzo[d]imidazol-4-yl)phenyl)-N^2,N^2-dimethylethane-1,2-diamine]	–	3560	3110	1770	–	–
CN(C)CCNc1cc(F)cc(-c2cccc3[nH]c(-c4n[nH]c5ccc(-c6cncc(OCc7ccccc7)c6)nc45)nc23)c1 [Compound 790, N^1-(3-(2-(5-(5-(Benzyloxy)pyridin-3-yl)-1H-pyrazolo[4,3-b]pyridin-3-yl)-1H-benzo[d]imidazol-4-yl)-5-fluorophenyl)-N^2,N^2-dimethylethane-1,2-diamine]	–	722	1120	798	–	–
CN(C)CCNc1cc(F)cc(-c2cccc3[nH]c(-c4n[nH]c5ccc(-c6cnccn6)nc45)nc23)c1 [Compound 792, N^1-(3-Fluoro-5-(2-(5-(pyrazin-2-yl)-1H-pyrazolo[4,3-b]pyridin-3-yl)-1H-benzo[d]imidazol-4-yl)phenyl)-N^2,N^2-dimethylethane-1,2-diamine]	–	4230	3960	1900	–	–
CN(C)CC(=O)Nc1cncc(-c2ccc3[nH]nc(-c4nc5c(-c6cccc(F)c6)cccc5[nH]4)c3n2)c1 [Compound 969, 2-(Dimethylamino)-N-(5-(3-(4-(3-fluorophenyl)-1H-benzo[d]imidazol-2-yl)-1H-pyrazolo[4,3-b]pyridin-5-yl)pyridin-3-yl)acetamide]	25.3	> 10000	3990	2070	–	–
COc1cccc(-c2cccc3[nH]c(-c4n[nH]c5ccc(-c6cccnc6)nc45)nc23)c1 [Compound 994, 3-(4-(3-Methoxyphenyl)-1H-benzo[d]imidazol-2-yl)-5-(pyridin-3-yl)-1H-pyrazolo[4,3-b]pyridine]	–	5940	4610	1050	–	–
COc1cccc(-c2cccc3[nH]c(-c4n[nH]c5ccc(-c6cncc(NC(=O)Cc7ccccc7)c6)nc45)nc23)c1 [Compound 1000, N-(5-(3-(4-(3-Methoxyphenyl)-1H-benzo[d]imidazol-2-yl)-1H-pyrazolo[4,3-b]pyridin-5-yl)pyridin-3-yl)-2-phenylacetamide]	–	4130	3250	2270	–	–
COc1cccc(-c2cccc3[nH]c(-c4n[nH]c5ccc(-c6cncc(NC(=O)CC(C)(C)C)c6)nc45)nc23)c1 [Compound 1006, N-(5-(3-(4-(3-methoxyphenyl)-1H-benzo[d]imidazol-2-yl)-1H-pyrazolo[4,3-b]pyridin-5-yl)pyridin-3-yl)-3,3-dimethylbutanamide]	–	5910	2410	> 10000	–	32.2
COc1cccc(-c2cccc3[nH]c(-c4n[nH]c5ccc(-c6cncc(NC(=O)C7CCCCC7)c6)nc45)nc23)c1 [Compound 1012, N-(5-(3-(4-(3-Methoxyphenyl)-1H-benzo[d]imidazol-2-yl)-1H-pyrazolo[4,3-b]pyridin-5-yl)pyridin-3-yl)cyclohexanecarboxamide]	4.6	> 10000	> 10000	> 10000	3.6	36.9
COc1cccc(-c2cccc3[nH]c(-c4n[nH]c5ccc(-c6cn[nH]c6)nc45)nc23)c1 [Compound 1020, 3-(4-(3-Methoxyphenyl)-1H-benzo[d]imidazol-2-yl)-5-(1H-pyrazol-4-yl)-1H-pyrazolo[4,3-b]pyridine]	12.6	> 10000	> 10000	372	18.9	–
COc1cccc(-c2cccc3[nH]c(-c4n[nH]c5ccc(-c6cncc(OC7CCNCC7)c6)nc45)nc23)c1 [Compound 1025, 3-(4-(3-Methoxyphenyl)-1H-benzo[d]imidazol-2-yl)-5-(5-(piperidin-4-yloxy)pyridin-3-yl)-1H-pyrazolo[4,3-b]pyridine]	–	5740	3970	2110	–	–
COc1cccc(-c2cccc3[nH]c(-c4n[nH]c5ccc(-c6cncc(O)c6)nc45)nc23)c1 [Compound 1030, 5-(3-(4-(3-Methoxyphenyl)-1H-benzo[d]imidazol-2-yl)-1H-pyrazolo[4,3-b]pyridin-5-yl)pyridin-3-ol]	–	1010	980	915	–	–
CC(C)CC(=O)Nc1cncc(-c2ccc3[nH]nc(-c4nc5c(-c6ccc(Cl)s6)cccc5[nH]4)c3n2)c1 [Compound 1037, N-(5-(3-(4-(5-Chlorothiophen-2-yl)-1H-benzo[d]imidazol-2-yl)-1H-pyrazolo [4,3-b]pyridin-5-yl)pyridin-3-yl)-3-methylbutanamide]	–	9680	1900	1390	–	–
CC(C)(C)C(=O)Nc1cncc(-c2ccc3[nH]nc(-c4nc5c(-c6ccc(Cl)s6)cccc5[nH]4)c3n2)c1 [Compound 1043, N-(5-(3-(4-(5-chlorothiophen-2-yl)-1H-benzo[d]imidazol-2-yl)-1H-pyrazolo[4,3-b]pyridin-5-yl)pyridin-3-yl)pivalamide]	–	5270	1310	2330	–	–
